# Target: Recombinant human Mat2a (Homo sapiens, UniProt P31153)
# Experiment: Determination of Mat2A activity (384 well absorbance-based assay, Biomol Green)
# Type: biochemical
# Conditions: 12.5 nM Mat2A, 100 μM ATP and Methionine, 2% DMSO, 120 minutes at RT, absorbance at 635 nm
# Description: Determination of Mat2A activity
# Measurement of Mat2A inhibition is performed in 384 well format absorbance-based assay. Recombinant human Mat2a (12.5 nM) and serial diluted compounds in DMSO (range of concentrations from […] to 508 pM) or controls (DMSO) are incubated for 15 minutes at room temperature (RT) in assay buffer containing 50 mM HEPES pH 7.5, 50 mM KCl, 50 mM MgCl2, 0.01% Tween 20 and 10 mM DTT. The reaction is initiated by the addition of the combined substrates ATP and Methionine, each at a final concentration of 100 μM. Final assay condition are 12.5 nM Mat2A, 100 μM ATP and Methionine Substrates and 2% DMSO. After 120 minutes of incubation at RT, the reaction is stopped by the addition of Biomol Green. The absorbance signal is measured at λ=635 nm with a multiplate reader (BMG Pherastar reader or equivalent) after 30 min of equilibration at RT.
# Sequence of Recombinant human Mat2a (P31153 whole entry): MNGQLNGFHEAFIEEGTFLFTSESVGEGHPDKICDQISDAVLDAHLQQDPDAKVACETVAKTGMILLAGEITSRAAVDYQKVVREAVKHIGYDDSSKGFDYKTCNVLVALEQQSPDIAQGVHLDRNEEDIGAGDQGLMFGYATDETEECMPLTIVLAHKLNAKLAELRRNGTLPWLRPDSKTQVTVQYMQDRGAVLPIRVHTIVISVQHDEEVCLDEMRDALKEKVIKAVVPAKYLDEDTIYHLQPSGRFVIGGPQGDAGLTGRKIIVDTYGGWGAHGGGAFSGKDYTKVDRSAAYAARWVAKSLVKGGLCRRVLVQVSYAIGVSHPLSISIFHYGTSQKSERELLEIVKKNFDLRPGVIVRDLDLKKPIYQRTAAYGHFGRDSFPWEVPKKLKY
row,Compound,IC50 [nM]
1,"Cc1ccncc1-n1c(=O)nc(N)c2ccc(C3CC3)nc21 [Example 47, 4-amino-7-cyclopropyl-1-(4-methylpyridin-3-yl)pyrido[2,3-d]pyrimidin-2(1H)-one]",< 13
2,"Cc1ncccc1-n1c(=O)nc(N)c2ccc(C3COC3)cc21 [Example 22, 4-amino-1-(2-methylpyridin-3-yl)-7-(oxetan-3-yl)quinazolin-2(1H)-one]",21
3,"Cc1c(F)cccc1-n1c(=O)nc(N)c2ccc(C3CC3)nc21 (single isomer, unassigned) [Example 104, (−)-4-amino-7-cyclopropyl-1-(3-fluoro-2-methylphenyl)pyrido[2,3-d]pyrimidin-2 (1H)-one]",110
4,"Nc1nc(=O)n(C2CCNC(=O)C2)c2nc(C3CC3)ccc12 (centres unmarked) [Example 97, 4-amino-7-cyclopropyl-1-(2-oxopiperidin-4-yl)pyrido[2,3-d]pyrimidin-2 (1H)-one]",48
5,"N#Cc1cccc(-n2c(=O)nc(N)c3ccc(C4CC4)nc32)c1 [Example 151, 3-(4-amino-7-cyclopropyl-2-oxopyrido[2,3-d]pyrimidin-1 (2H)-yl)benzonitrile]",< 13
6,"Cc1cccc(-n2c(=O)nc(N)c3ccc(C4CC4)nc32)c1C [Example 138, 4-amino-7-cyclopropyl-1-(2,3-dimethylphenyl)pyrido[2,3-d]pyrimidin-2 (1H)-one]",< 13
7,"CCNc1ccc2c(N)nc(=O)n(-c3ccccc3C)c2c1 [Example 153, 4-amino-7-(ethylamino)-1-(o-tolyl)quinazolin-2-one]",17
8,"Nc1nc(=O)n(-c2cccnc2Cl)c2nc(C3CC3)ccc12 [Example 85, 4-amino-1-(2-chloropyridin-3-yl)-7-cyclopropylpyrido[2,3-d]pyrimidin-2(1H)-one]",< 13
9,"Nc1nc(=O)n([C@H]2CCCOC23CC3)c2nc(C3CC3)ccc12 [Example 142, 4-amino-7-cyclopropyl-1-[(8S)-4-oxaspiro[2.5]octan-8-yl]pyrido[2,3-d]pyrimidin-2-one]",< 13
10,"Cc1ncccc1-n1c(=O)nc(N)c2ccc(C(C)(C)F)cc21 [Example 58, 4-amino-7-(2-fluoropropan-2-yl)-1-(2-methylpyridin-3-yl)quinazolin-2-one]",22
11,"Nc1nc(=O)n(-c2cccc3[nH]ccc23)c2nc(C3CC3)ccc12 [Example 164, 4-amino-7-cyclopropyl-1-(1H-indol-4-yl)pyrido[2,3-d]pyrimidin-2-one]",< 13
12,"Cc1ncccc1-n1c(=O)nc(N)c2ccc(C(F)F)cc21 [Example 35, 4-amino-7-(difluoromethyl)-1-(2-methylpyridin-3-yl)quinazolin-2(1H)-one]",< 13
13,"CC(C1CCOC1)n1c(=O)nc(N)c2ccc(C3CC3)nc21 (centres unmarked) [Example 13, 4-amino-7-cyclopropyl-1-[1-(oxolan-3-yl)ethyl]pyrido[2,3-d]pyrimidin-2-one]",23
14,"Cc1c(C#N)cccc1-n1c(=O)nc(N)c2ccc(OC(F)(F)F)cc21 [Example 158, 3-[4-amino-2-oxo-7-(trifluoromethoxy)quinazolin-1-yl]-2-methylbenzonitrile]",25
15,"Cc1ccccc1-n1c(=O)nc(N)c2c(C#N)cc(C3CC3)nc21 [Example 95, 4-amino-7-cyclopropyl-2-oxo-1-(o-tolyl)-1,2-dihydropyrido[2,3-d]pyrimidine-5-carbonitrile]",22
16,"Nc1nc(=O)n(-c2cccc(Cl)c2F)c2nc(C3CC3)ccc12 [Example 161, 4-amino-1-(3-chloro-2-fluorophenyl)-7-cyclopropylpyrido[2,3-d]pyrimidin-2-one]",< 13
17,"Cc1cccc(-n2c(=O)nc(N)c3ccc(C4CC4)nc32)c1F [Example 127, 4-amino-7-cyclopropyl-1-(2-fluoro-3-methylphenyl)pyrido[2,3-d]pyrimidin-2 (1H)-one]",13
18,"COc1c(F)cccc1-n1c(=O)nc(N)c2ccc(C3CC3)nc21 [Example 14, 4-amino-7-cyclopropyl-1-(3-fluoro-2-methoxyphenyl)pyrido[2,3-d]pyrimidin-2(1H)-one]",27
19,"Cc1c(F)cccc1-n1c(=O)nc(N)c2ccc(OC(F)F)cc21 [Example 122, 4-amino-7-(difluoromethoxy)-1-(3-fluoro-2-methylphenyl)quinazolin-2 (1H)-one]",< 13
20,"Nc1nc(=O)n(-c2ccccc2Cl)c2nc(C3CC3)ccc12 (single isomer, unassigned) [Example 114, (+)-4-amino-1-(2-chlorophenyl)-7-cyclopropylpyrido[2,3-d]pyrimidin-2 (1H)-one]",< 13
21,"C[C@@H]1OCC[C@@H]1n1c(=O)nc(N)c2ccc(C3CC3)nc21 (relative stereo) [Example 89, 4-amino-7-cyclopropyl-1-((cis)-2-methyltetrahydrofuran-3-yl)pyrido[2,3-d]pyrimidin-2(1H)-one]",53
22,"Cc1ccccc1-n1c(=O)nc(N)c2cnc(C3CC3)nc21 [Example 96, 4-amino-7-cyclopropyl-1-(o-tolyl)pyrimido[4,5-d]pyrimidin-2 (1H)-one]",< 13

# The next lines start with the values.
row,IC50 [nM],Compound
1,14,"C[C@@H]1OCCC[C@@H]1n1c(=O)nc(N)c2ccc(C3CC3)nc21 (racemic) [Example 121, 4-amino-7-cyclopropyl-1-[(2SR,3SR)-2-methyltetrahydropyran-3-yl]pyrido[2,3-d]pyrimidin-2-one]"
2,14,"Cc1ncccc1-n1c(=O)nc(N)c2c(F)cc(C(F)(F)F)cc21 [Example 59, 4-amino-5-fluoro-1-(2-methylpyridin-3-yl)-7-(trifluoromethyl)quinazolin-2 (1H)-one]"
3,< 13,"Cc1ncccc1-n1c(=O)nc(N)c2cc(Cl)c(C3CC3)nc21 [Example 18, 4-amino-6-chloro-7-cyclopropyl-1-(2-methylpyridin-3-yl)pyrido[2,3-d]pyrimidin-2(1H)-one]"
4,15,"CCOc1c(C#N)cccc1-n1c(=O)nc(N)c2ccc(C3CC3)nc21 [Example 20, 3-(4-amino-7-cyclopropyl-2-oxopyrido[2,3-d]pyrimidin-1(2H)-yl)-2-ethoxybenzonitrile]"
5,40,"Nc1nc(=O)n([C@H]2CCCCOC2)c2nc(C3CC3)ccc12 [Example 125, (S)-4-amino-7-cyclopropyl-1-(oxepan-3-yl)pyrido[2,3-d]pyrimidin-2 (1H)-one]"
6,20,"Cc1cccc(-n2c(=O)nc(N)c3ccc(OC(F)F)cc32)c1 [Example 134, 4-amino-7-(difluoromethoxy)-1-(m-tolyl)quinazolin-2 (1H)-one]"
7,< 13,"Cc1c(F)cccc1-n1c(=O)nc(N)c2ccc(C3CC3)nc21 [Example 25, 4-amino-7-cyclopropyl-1-(3-fluoro-2-methylphenyl)pyrido[2,3-d]pyrimidin-2(1H)-one]"
8,< 13,"Nc1nc(=O)n(-c2cccnc2Cl)c2cc(OC(F)F)ccc12 [Example 137, 4-amino-1-(2-chloropyridin-3-yl)-7-(difluoromethoxy)quinazolin-2 (1H)-one]"
9,66,"Nc1nc(=O)n(-c2cc(F)cc(F)c2)c2nc(C3CC3)ccc12 [Example 70, 4-amino-7-cyclopropyl-1-(3,5-difluorophenyl)pyrido[2,3-d]pyrimidin-2(1H)-one]"
10,86,"CC(C1CCCO1)n1c(=O)nc(N)c2ccc(C3CC3)nc21 (centres unmarked) [Example 21, 4-amino-7-cyclopropyl-1-(1-(tetrahydrofuran-2-yl)ethyl)pyrido[2,3-d]pyrimidin-2(1H)-one]"

# Source: patent US20230227449A1, “AMIDOPYRIMIDONE DERIVATIVES” (Hoffmann-La Roche Inc., priority 2020, published 2023)
